This is an account of results in article PMC6349357, “Computational and experimental analysis of bioactive peptide linear motifs in the integrin adhesome” (PLoS ONE, 2019).

Marks after values point to notes of the source that are not given here.

Assay [1] deals with resting platelets. Put plainly: Platelet aggregation induced by peptide in resting washed platelets (activation). The class given is cell-based, human (healthy volunteers). In outline: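 Aggregation was read by optical density at 37°C under 1100 rpm stirring. Samples were 3x10^5/μl washed human platelets, rested 45 min and supplemented with 1.8 mM calcium chloride. Peptide went in at 2 min, followed 6 min later by TRAP at an experiment-dependent concentration, with 7 min further recording.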

Assay [2] deals with T1, paxillin in HeLa cells (Homo sapiens, UniProt P49023).
T1 construct: endogenous in cells; host or cells: HeLa
Put plainly: Co-localization of 5FAM-labeled peptide with paxillin in HeLa cells (microscopy). It is filed as cell-based. As to conditions: 15 μM, 5-15 minutes. Here is the method:
HeLa cells were seeded on a 24-well plate with inserted coverslips at a density of 30000 cells/well. After 24h the cells were treated with 15 μM peptide for the desired amount of time (5, 10, 15 minutes). Cells were then fixed in 3% paraformaldehyde (PFA, Sigma) for 20 minutes and permeabilized with 0.1% Triton X-100 (Sigma) for 5 minutes at room temperature. Cells were then washed 3 times with PBS and stained with antibodies. Staining with primary antibody (paxillin/vinculin (Abcam)) was performed for 30 minutes, followed by three PBS washes and secondary staining using goat anti-mouse Alexa 568 antibody (Life Technologies) for 30 minutes. Then the nuclei were stained with 0.2 μg/ml Hoechst33342, the coverslips were thoroughly washed with PBS and mounted on glass slides with Mowiol mounting medium. The slides were then imaged on a FluoView FV1000 laser scanning microscope (Olympus) with 60x UPLSAPO 1.35NA (Olympus) oil immersion objective.

Assay [3] deals with tyrosine phosphorylation in platelets. Nature of the assay: Phosphotyrosine western blot (4G10) of platelets treated with peptide. It is filed as cell-based, human (healthy volunteers). On the set-up: key to Phospho: R: in resting platelets; A: after TRAP activation. As to conditions: phosphorylation changes associated with peptide treatment; pal 20 μM, tat 50 μM, TRAP 4 μM. As to the method: A platelet concentration of 3x10^5 /μl was used when performing standard aggregations and a concentration of 1x10^6 /μl was used for sample preparation for western blot analysis. The extent of platelet aggregation was measured by quantifying the optical density of the samples using the Bio-Data PAP-8 aggregometer (platelet aggregation profiler, Horsham, PA, USA). A temperature of 37°C was maintained and samples were stirred using magnets spinning at 1100 rpm. 200 μl of washed platelets was added to each aggregation tube. Different volumes of buffer, peptide and TRAP were added to achieve the desired concentrations. Peptide/buffer was added to each well after two minutes. TRAP, with a final concentration depending on the experiment, was added 6 minutes later and data was collected for an additional 7 minutes.
After the aggregation step, tubes were immediately placed on ice. 27 μl of lysis buffer was then added and the tube was vortexed vigorously. Lysates were left on ice for one hour and vortexed frequently. Proteins were then centrifuged at 14,000 rcf for 10 minutes to remove debris. Samples were then mixed with 2x sample buffer. 50 μl each sample was added to 50 μl of sample buffer. The protein was then denatured by heating to 95°C for 5 minutes. 10 μl of lysate was kept for protein quantification. All samples and lysates were frozen at -80°C.
The Bradford assay was then performed on the lysates to determine protein concentration. Protein concentrations were measured using the Bio-Rad DC Protein Assay. A calibration was created using samples containing a known concentration of bovine serum albumin. These were prepared in advance by sequential dilutions with final concentrations of 1.5mg/ml, 1mg/ml, 0.8mg/ml, 0.6mg/ml, 0.4mg/ml, 0.2mg/ml, 0mg/ml. Samples were then dispensed into a 96 well plate and the Bio-Rad DC reagents were added as described in the protocol. Samples were left to rest for 15 minutes and were then read using 690 0.15 mode on the Wallac plate reader. A standard curve was calculated from the standard samples of known concentration and the y = ax+b equation was used to determine the concentration of the other samples.
Sodium Dodecyl Sulfate Polyacrylamide Gel Electrophoresis (SDS-PAGE) was performed to separate proteins by molecular weight. Polyacrylamide gels were prepared (see Reagents section). Samples or molecular markers were loaded in volumes to give 20 μg of protein. The gels were then run for approximately 80 minutes or until the samples reached the end of the gel. The proteins were then transferred to polyvinylidene difluoride (PVDF) membranes using a Bio-Rad Wet Blot Transfer Cell apparatus. During the transfer the membranes were submerged in 1x transfer buffer (10% 10x transfer buffer, 70% deionised water and 20% methanol). Transfer was performed either overnight at 40 volts at 4°C, or at 100 volts for 1 hour cooled with an ice block. After the transfer the membranes were blocked for 1 hour using 3% bovine albumin serum (BSA) dissolved in TBS-T. Membranes were incubated with 4G10 antibody with a 1:1000 dilution. Unbound primary antibody was washed off with TBS-T three times for 5 minutes each. Membranes were then incubated with anti-mouse IgG secondary antibody (Millipore) with a dilution of 1:30,000. Membranes were submerged in chemiluminescence ECL solution (Thermo Scientific). They were then measured using the western blot developer UVP. One image was taken every 80 seconds for 40 minutes. Numeric data was extracted from selected blots using ImageJ.
On the technique in general: In western blotting, separated proteins are transferred to a membrane and probed.

T1 sequence (P49023 whole entry): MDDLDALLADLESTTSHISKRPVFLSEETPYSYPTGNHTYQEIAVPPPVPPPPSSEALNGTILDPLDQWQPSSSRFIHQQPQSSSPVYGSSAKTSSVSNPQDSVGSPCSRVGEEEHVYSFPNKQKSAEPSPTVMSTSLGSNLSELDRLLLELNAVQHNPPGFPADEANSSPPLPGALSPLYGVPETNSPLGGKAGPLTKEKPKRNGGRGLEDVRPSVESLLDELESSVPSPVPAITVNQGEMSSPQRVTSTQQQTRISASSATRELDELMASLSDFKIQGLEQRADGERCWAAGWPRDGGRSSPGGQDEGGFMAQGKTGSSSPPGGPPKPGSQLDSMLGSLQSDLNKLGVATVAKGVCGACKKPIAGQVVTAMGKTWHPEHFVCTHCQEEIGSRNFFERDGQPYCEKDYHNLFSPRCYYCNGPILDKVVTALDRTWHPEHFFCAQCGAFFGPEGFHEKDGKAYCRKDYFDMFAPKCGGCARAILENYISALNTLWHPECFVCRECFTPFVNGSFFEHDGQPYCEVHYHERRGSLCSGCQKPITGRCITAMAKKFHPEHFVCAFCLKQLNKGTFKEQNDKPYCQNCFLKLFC

For the substance “tat-WEQLLTTIARTINEVENQI-(NH2) [tat-ACTN1_VBS]”, the Platelet activation, donor 14 06 13 in assay [1] (Fig S10 sheet, replicate 14_06_13, peptide 50 µM, unit assumed) came to 68%. Also, in assay [1] (Fig S10 sheet, replicate 18_06_13, peptide 50 µM, unit assumed), the Platelet activation, donor 18 06 13 turned out to be 73%. For the same substance, the Platelet activation, donor 22 08 13 DONOR1 in assay [1] (Fig S10 sheet, replicate 22_08_13_DONOR1, peptide 50 µM, unit assumed) was determined as 59%. The same substance gave a Platelet activation, donor 22 08 13 DONOR2 in assay [1] (Fig S10 sheet, replicate 22_08_13_DONOR2, peptide 50 µM, unit assumed) of 41%. The Activation in assay [1] (platelet aggregation in resting platelets after 6 minutes incubation with peptide, pal-peptides 20 μM, tat-peptides 50 μM, optical density, aggregometer, mean, n>=3) was 66 ^*. In addition, in assay [1] (replicate donor e, pal 20 μM, tat 50 μM), the “Aggregation before TRAP activation, donor e” value was determined as 73. In assay [1] (replicate donor k, pal 20 μM, tat 50 μM), the “Aggregation before TRAP activation, donor k” value stood at 59. The “Aggregation before TRAP activation, donor l” value in assay [1] (replicate donor l, pal 20 μM, tat 50 μM) was determined as 68. Besides, the Co-localization with paxillin result in assay [2] was “did not co-localize”. In addition, the Phospho result in assay [3] is recorded as “R”.
